Marks after values point to notes of the source that are not given here.
System: severe traumatic brain injury (sTBI) in rats
Assay: HPLC of purine-pyrimidine / energy metabolites in rat brain after sTBI (Example 4)
Type: in vivo
Method: The effects of daily sub-cutaneous injections of dextran sulfate on glutamate excitotoxicity and mitochondrial function after severe traumatic brain injury (sTBI) in rats were evaluated by high-performance liquid chromatography (HPLC) analysis of frozen brain samples.
The experimental protocol used in this study was approved by the Ethical Committee of the Catholic University of Rome, according to international standards and guidelines for animal care. Male Wistar rats of 300-350 g body weight (b.w.) were fed with standard laboratory diet and water ad libitum in a controlled environment.
They were divided into three groups: • 1) n=6 animals subjected to sTBI, with drug administration after 30 minutes and sacrifice at 2 days post-TBI (Acute phase 1) • 2) n=6 animals subjected to severe-TBI, with drug administration after 30 minutes and sacrifice at 7 days post-TBI (Acute phase 2). • 3) n=6 animals subjected to severe-TBI, with drug administration after 3 days and sacrifice at 7 days post-TBI (Chronic phase).
As the anesthetic mixture, animals received 35 mg/kg b.w. ketamine and 0.25 mg/kg b.w. midazolam by i.p. injection. sTBI was induced by dropping a 450 g weight from 2 m height on to the rat head that had been protected by a metal disk previously fixed on the skull, according to the “weight drop” impact acceleration model (Marmarou et al., A new model of diffuse brain injury in rats. Part I: Pathophysiology and biomechanics. J Neurosurg. 1994; 80: 291-300). […] At the end of each period of treatment, rats were anesthetized again and then immediately sacrificed.
The drug treatment was a subcutaneous injection of 0.5 ml of dextran sulfate (Tikomed AB, Viken, Sweden, WO 2016/076780; 15 mg/kg) and administered according to the aforementioned schematic protocol.
An in vivo craniectomy was performed in all animals during anesthesia, after carefully removing the rat's skull, the brain was exposed and removed with a surgical spatula and quickly dropped in liquid nitrogen. After the wet weight (w.w.) determination, tissue preparation was affected as previously disclosed (Tavazzi et al., Cerebral oxidative stress and depression of energy metabolism correlate with severity of diffuse brain injury in rats. Neurosurgery. 2005; 56: 582-589; Vagnozzi et al., Temporal window of metabolic brain vulnerability to concussions: mitochondrial-related impairment-part I. Neurosurgery. 2007; 61: 379-388; Tavazzi et al., Temporal window of metabolic brain vulnerability to concussions: oxidative and nitrosative stresses-part II. Neurosurgery. 2007; 61: 390-395; Amorini et al., Severity of experimental traumatic brain injury modulates changes in concentrations of cerebral free amino acids. J Cell Mol Med. 2017; 21: 530-542.). Briefly, whole brain homogenization was performed with 7 ml of ice-cold, nitrogen-saturated, precipitating solution composed by CH3CN+10 mM KH2PO4, pH 7.40, (3:1; v:v), and using an Ultra-Turrax set at 24,000 rpm/min (Janke & Kunkel, Staufen, Germany). After centrifugation at 20,690×g, for 10 min at 4° C., the clear supernatants were saved, pellets were supplemented with 3 ml of the precipitating solution and homogenized again as described above. A second centrifugation was performed (20,690×g, for 10 min at 4° C.), pellets were saved, supernatants combined with those previously obtained, extracted by vigorous agitation with a double volume of HPLC-grade CHCl3 and centrifuged as above. The upper aqueous phases containing water-soluble low-molecular weight compounds were collected, subjected to chloroform washings for two more times (this procedure allowed the removal of all the organic solvent and of any lipid soluble compound from the buffered tissue extracts), adjusted in volumes with 10 mM KH2PO4, pH 7.40, to have ultimately aqueous 10% tissue homogenates and saved at −80° C. until assayed. […]

[1] = Acute phase 2 (15 mg/kg s.c. 30 min after sTBI, sacrifice 7 days post-TBI)
[2] = Chronic phase (15 mg/kg s.c. 3 days after sTBI, sacrifice 7 days post-TBI)
[3] = rat brain after sTBI, after administration

dextran sulfate
UDP-GalNac concentration [1]: 19.90 ± 3.12^a,e nmol/g (w.w.)
UDP-Glc concentration [1]: 44.44 ± 7.59^j nmol/g (w.w.)
UDP-GlcNac concentration [1]: 130.65 ± 28.41^a nmol/g (w.w.)
UMP concentration [1]: 138.73 ± 32.01^b nmol/g (w.w.)
UTP concentration [1]: 146.71 ± 32.68^e nmol/g (w.w.)
acetyl-CoA concentration [1]: 36.86 ± 4.11^e nmol/g (w.w.)
adenine concentration [1]: 58.16 ± 6.36^a,f nmol/g (w.w.)
ascorbic acid concentration [1]: 3512.58 ± 224.62^a,e nmol/g (w.w.)
creatinine concentration [1]: 37.27 ± 5.82^a,e,j nmol/g (w.w.)
cytidine concentration [1]: 16.18 ± 4.21^e nmol/g (w.w.)
cytosine concentration [1]: 15.70 ± 4.10^f nmol/g (w.w.)
guanine concentration [1]: 4.73 ± 1.07 nmol/g (w.w.)
guanosine concentration [1]: 17.90 ± 3.24^j nmol/g (w.w.)
hypoxanthine concentration [1]: 12.90 ± 2.58^a,j nmol/g (w.w.)
inosine concentration [1]: 85.52 ± 20.36^e nmol/g (w.w.)
malonyl-CoA concentration [1]: 11.29 ± 2.27^b nmol/g (w.w.)
orotic acid concentration [1]: 13.34 ± 3.65^a nmol/g (w.w.)
thymidine concentration [1]: 0.49 ± 0.20^f nmol/g (w.w.)
uracil concentration [1]: 19.40 ± 7.52^a,e nmol/g (w.w.)
uric acid concentration [1]: 19.17 ± 2.15^a,h,i nmol/g (w.w.)
uridine concentration [1]: 63.02 ± 9.66^b,e nmol/g (w.w.)
xanthine concentration [1]: 10.41 ± 2.11^f nmol/g (w.w.)
β-pseudouridine concentration [1]: 13.26 ± 3.16^a,e,j nmol/g (w.w.)
ADO concentration [2]: 89.97 ± 12.98^a nmol/g (w.w.)
ADP concentration [2]: 315.53 ± 46.53^a nmol/g (w.w.)
ADP-ribose concentration [2]: 173.94 ± 8.45^a nmol/g (w.w.)
AMP concentration [2]: 90.01 ± 21.24^a nmol/g (w.w.)
ATP concentration [2]: 1381.03 ± 212.64^a nmol/g (w.w.)
CDP choline concentration [2]: 8.37 ± 2.19 nmol/g (w.w.)
CDP concentration [2]: 23.55 ± 6.45^a nmol/g (w.w.)
CMP concentration [2]: 20.51 ± 3.73^a,f nmol/g (w.w.)
CTP concentration [2]: 25.23 ± 2.93^a,f nmol/g (w.w.)
CoA-SH concentration [2]: 27.58 ± 6.24^f nmol/g (w.w.)
GDP concentration [2]: 173.05 ± 28.68^a,e nmol/g (w.w.)
GDP glucose concentration [2]: 43.85 ± 5.06^b nmol/g (w.w.)
GMP concentration [2]: 148.56 ± 31.21^a nmol/g (w.w.)
GSH concentration [2]: 2608.67 ± 358.07^a,e nmol/g (w.w.)
GSSG concentration [2]: 231.08 ± 44.34^b,f nmol/g (w.w.)
GTP concentration [2]: 290.92 ± 34.68^a,f nmol/g (w.w.)
IMP concentration [2]: 99.29 ± 13.82^a nmol/g (w.w.)
MDA concentration [2]: 11.62 ± 3.90^a,e nmol/g (w.w.)
NAA concentration [2]: 6375.36 ± 974.12^a,e nmol/g (w.w.)
NADH concentration [2]: 11.78 ± 3.32^e nmol/g (w.w.)
NADPH concentration [2]: 7.34 ± 2.65^f nmol/g (w.w.)
NADP^+ concentration [2]: 16.44 ± 2.66^a,f nmol/g (w.w.)
NAD^+ concentration [2]: 301.13 ± 29.90^a nmol/g (w.w.)
NO2 concentration [2]: 217.67 ± 55.04^a nmol/g (w.w.)
NO3 concentration [2]: 241.27 ± 18.84^e nmol/g (w.w.)
UDP concentration [2]: 57.40 ± 5.88^a,f nmol/g (w.w.)
UDP-Gal concentration [2]: 122.29 ± 12.15 nmol/g (w.w.)
UDP-GalNac concentration [2]: 21.84 ± 2.80^a,e nmol/g (w.w.)
UDP-Glc concentration [2]: 35.79 ± 3.45^b nmol/g (w.w.)
UDP-GlcNac concentration [2]: 129.42 ± 15.88^b nmol/g (w.w.)
UMP concentration [2]: 103.11 ± 29.79 nmol/g (w.w.)
UTP concentration [2]: 136.80 ± 33.25^f nmol/g (w.w.)
acetyl-CoA concentration [2]: 35.68 ± 6.55^e nmol/g (w.w.)
adenine concentration [2]: 52.94 ± 8.59^a,f nmol/g (w.w.)
ascorbic acid concentration [2]: 3375.03 ± 856.41^a,e nmol/g (w.w.)
creatinine concentration [2]: 51.25 ± 10.17^a,f nmol/g (w.w.)
cytidine concentration [2]: 14.71 ± 2.83^e nmol/g (w.w.)
cytosine concentration [2]: 15.58 ± 2.50^b,f nmol/g (w.w.)
guanine concentration [2]: 5.31 ± 1.04^b nmol/g (w.w.)
guanosine concentration [2]: 28.87 ± 7.60^a,f nmol/g (w.w.)
hypoxanthine concentration [2]: 17.97 ± 4.49^a nmol/g (w.w.)
inosine concentration [2]: 105.81 ± 25.57^f nmol/g (w.w.)
malonyl-CoA concentration [2]: 10.00 ± 1.95^b nmol/g (w.w.)
orotic acid concentration [2]: 12.05 ± 1.50^a nmol/g (w.w.)
thymidine concentration [2]: 0.71 ± 0.11 nmol/g (w.w.)
uracil concentration [2]: 16.57 ± 2.99^a,f nmol/g (w.w.)
uric acid concentration [2]: 27.77 ± 3.60^a nmol/g (w.w.)
uridine concentration [2]: 63.28 ± 3.37^f nmol/g (w.w.)
xanthine concentration [2]: 9.35 ± 0.83^f nmol/g (w.w.)
β-pseudouridine concentration [2]: 18.62 ± 2.80^a nmol/g (w.w.)
cerebral nitrate concentrations (both the acute and chronic phases of sTBI): significantly decreased
cerebral GSH level [3]: significant improvement
cerebral MDA levels [3]: significant reduction
cerebral NAA and its substrates [3]: significant improvements
cerebral ascorbic acid level [3]: significant improvement

Reference: patent US20240082296A1, “TREATMENT OF MUSCLE ATROPHY USING DEXTRAN SULFATE” (TX MEDIC AB, priority 2020, published 2024)
